The target of one experiment is T1, human mGlu8 (Homo sapiens, UniProt O00222).
T1 construct: expressed in transfected cells; host or cells: RGT cells (cells expressing the rat glutamate transporter)
Conditions: decrease forskolin-stimulated cAMP, mean ± S.E.M., read-out: EC50 (nM) (Agonist Activity); cited from earlier work.

A further experiment addresses T2, human mGlu5 (Homo sapiens, UniProt P41594).
T2 construct: expressed in transfected cells; host or cells: RGT cells (cells expressing the rat glutamate transporter)
Conditions: increase PI hydrolysis, cited from earlier work.

The next experiment addresses T3, human mGlu7 (Homo sapiens, UniProt Q14831).
T3 construct: expressed in transfected cells; host or cells: RGT cells (cells expressing the rat glutamate transporter)
Conditions: decrease forskolin-stimulated cAMP, cited from earlier work.

Another experiment addresses T4, human mGlu4 (Homo sapiens, UniProt Q14833).
T4 construct: expressed in transfected cells; host or cells: RGT cells (cells expressing the rat glutamate transporter)
The following applies: decrease forskolin-stimulated cAMP, cited from earlier work.

Experiment [1] has as its system PCP-induced motor activation (ambulations). In words: PCP-induced motor activation (ambulations) in rats. The experiment is classed as in vivo, rat. The following applies: PCP 5 mg/kg s.c., 60 min. How it is done:
In the present experiments, studies were performed in accordance with Eli Lilly and Company animal care and use policies. Male Sprague-Dawley rats (250-300 g) were group-housed (maximum of seven rats per cage) under standard laboratory conditions with ad libitum access to food and water (12 h light/dark cycle), for at least 1 day before use.
Activity Assessment compounds were tested against PCP-induced motor activation (ambulations) in rats. Behavioral parameters were monitored in transparent, shoe-box cages that measured 45×25×20 cm, with a 1 cm depth of wood chips on the cage floor and a metal grill on top of the cage. Rectangular photocell monitors (Hamilton Kinder, Poway, Calif.) with a bank of […] (8×4 formation) surrounded each test cage. A lower rack of photocell beams was positioned 5 cm above the cage floor to enable detection of the location of the animals body, while an upper bank positioned 10 cm above the first tabulated rearing activity. Ambulations (locomotor activity) and rearing were recorded by the computer and stored for each test session as discussed in Male Sprague-Dawley rats were generally food-fasted 12-18 hours prior to the experiment. In some experiments, rats were allowed food and water ad libitum prior to the experiment. On the test day animals were placed in the test cage for a 30 min habituation period before to testing to allow for acclimation to the test cage environment. Following this habituation period, animals were administered challenges of phencyclidine (PCP) (5 mg/kg s.c.) or 0.9% NaCl vehicle (1 ml/kg) and behavioral assessment began immediately following their administration. Animals were monitored over a 60 min period in all instances. Test drugs or vehicle were administered at various pretreatment times prior to the PCP challenge.
Statistical analysis. Statistical Analysis were carried out using the GraphPad PRISM statistical/graphing package (GraphPad, SanDiego, Calif.). Data were analyzed using a one-way analysis of variance (ANOVA) and post-hoc comparisons were performed using Dunnett's multiple comparisons test.
The rats were tested 30 minutes post-injection of the test compound or vehicle. Behaviors were monitored over a 60 minute time period following S.C. injection of PCP or vehicle. Data (mean±S.E.) are presented as the total number of behaviors expressed during the timer period.

The target of a further experiment is T5, human mGlu2 (Homo sapiens, UniProt Q14416).
T5 construct: expressed in transfected cells; host or cells: RGT cells (cells expressing the rat glutamate transporter)
Conditions: decrease forskolin-stimulated cAMP, mean ± S.E.M., read-out: EC50 (nM) (Agonist Activity); cited from earlier work.

Another experiment has as its target T6, human mGlu1 (Homo sapiens, UniProt Q13255).
T6 construct: expressed in transfected cells; host or cells: RGT cells (cells expressing the rat glutamate transporter)
The following applies: increase PI hydrolysis, cited from earlier work.

Another experiment concerns the target T7, human mGlu3 (Homo sapiens, UniProt Q14832).
T7 construct: expressed in transfected cells; host or cells: RGT cells (cells expressing the rat glutamate transporter)
The following applies: decrease forskolin-stimulated cAMP, mean ± S.E.M., read-out: EC50 (nM) (Agonist Activity); cited from earlier work.

Where [2] appears, read: read-out: EC50 (nM) (Agonist Activity).
Setting [3] is: read-out: IC50 (nM) (Antagonist Activity).

The source of these data is US20050192273A1, “Therapy for psychoses combining an atypical antipsychotic and an mglu2/3 receptor agonist” (priority 2002, published 2005).

“Also recorded” adds a separate entry of the source.

For orientation: EC50 means the concentration needed to bring the measured effect to its halfway point. For orientation: IC50 means the point on the concentration scale where inhibition reaches its midpoint.

T6 sequence (Q13255 19-1194): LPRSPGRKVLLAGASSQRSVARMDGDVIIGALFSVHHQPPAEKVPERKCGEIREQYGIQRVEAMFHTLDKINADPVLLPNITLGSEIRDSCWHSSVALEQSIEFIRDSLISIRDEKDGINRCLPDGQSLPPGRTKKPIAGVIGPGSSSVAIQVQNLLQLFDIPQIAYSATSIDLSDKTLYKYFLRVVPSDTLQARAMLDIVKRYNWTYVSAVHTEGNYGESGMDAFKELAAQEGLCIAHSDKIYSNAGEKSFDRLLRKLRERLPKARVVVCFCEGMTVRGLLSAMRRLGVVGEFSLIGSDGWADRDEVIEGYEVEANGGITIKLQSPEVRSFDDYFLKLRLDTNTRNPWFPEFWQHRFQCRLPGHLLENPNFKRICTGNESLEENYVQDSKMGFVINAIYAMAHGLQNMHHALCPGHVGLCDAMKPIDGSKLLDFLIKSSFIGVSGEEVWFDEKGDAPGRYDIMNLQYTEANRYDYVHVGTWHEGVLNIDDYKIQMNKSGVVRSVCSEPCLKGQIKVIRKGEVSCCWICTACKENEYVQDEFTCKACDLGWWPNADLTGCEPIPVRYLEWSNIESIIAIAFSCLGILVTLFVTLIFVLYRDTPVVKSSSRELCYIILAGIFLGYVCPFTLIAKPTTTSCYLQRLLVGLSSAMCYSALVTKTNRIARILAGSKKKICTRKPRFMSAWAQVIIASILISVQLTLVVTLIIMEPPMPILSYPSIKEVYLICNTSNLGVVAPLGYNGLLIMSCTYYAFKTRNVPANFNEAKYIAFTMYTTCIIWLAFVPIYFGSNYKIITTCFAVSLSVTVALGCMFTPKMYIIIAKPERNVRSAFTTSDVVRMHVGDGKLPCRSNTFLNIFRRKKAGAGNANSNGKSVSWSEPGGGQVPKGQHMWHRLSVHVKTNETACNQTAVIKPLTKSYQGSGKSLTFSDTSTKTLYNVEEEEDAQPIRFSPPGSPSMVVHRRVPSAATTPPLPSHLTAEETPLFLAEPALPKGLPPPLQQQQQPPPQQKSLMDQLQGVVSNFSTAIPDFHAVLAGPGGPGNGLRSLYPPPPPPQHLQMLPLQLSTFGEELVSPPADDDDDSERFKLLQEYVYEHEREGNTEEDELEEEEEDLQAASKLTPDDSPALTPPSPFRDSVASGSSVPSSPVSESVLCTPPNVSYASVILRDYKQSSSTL
T4 sequence (Q14833 33-912): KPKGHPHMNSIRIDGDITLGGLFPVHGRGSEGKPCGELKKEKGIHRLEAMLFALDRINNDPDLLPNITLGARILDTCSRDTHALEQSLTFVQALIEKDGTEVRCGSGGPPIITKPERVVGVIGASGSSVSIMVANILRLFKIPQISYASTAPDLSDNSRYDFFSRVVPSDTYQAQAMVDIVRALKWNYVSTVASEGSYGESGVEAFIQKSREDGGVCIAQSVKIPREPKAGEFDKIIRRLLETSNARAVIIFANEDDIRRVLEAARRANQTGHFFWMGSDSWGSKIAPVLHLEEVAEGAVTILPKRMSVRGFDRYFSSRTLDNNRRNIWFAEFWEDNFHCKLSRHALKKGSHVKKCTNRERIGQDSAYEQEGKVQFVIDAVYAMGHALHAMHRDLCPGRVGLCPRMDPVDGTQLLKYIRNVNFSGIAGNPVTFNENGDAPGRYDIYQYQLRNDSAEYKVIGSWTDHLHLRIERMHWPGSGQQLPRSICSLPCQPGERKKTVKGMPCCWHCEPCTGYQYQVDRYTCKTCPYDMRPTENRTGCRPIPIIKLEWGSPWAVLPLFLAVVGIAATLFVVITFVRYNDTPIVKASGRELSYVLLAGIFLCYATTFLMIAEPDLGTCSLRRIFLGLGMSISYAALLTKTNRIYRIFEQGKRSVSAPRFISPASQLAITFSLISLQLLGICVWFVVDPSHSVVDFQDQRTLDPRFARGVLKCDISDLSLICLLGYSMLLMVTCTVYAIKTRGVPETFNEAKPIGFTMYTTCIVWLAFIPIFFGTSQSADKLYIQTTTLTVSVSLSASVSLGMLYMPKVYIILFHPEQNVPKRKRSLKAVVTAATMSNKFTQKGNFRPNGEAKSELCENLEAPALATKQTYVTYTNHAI
T2 sequence (P41594 21-1180 isoform P41594-2 limits assumed): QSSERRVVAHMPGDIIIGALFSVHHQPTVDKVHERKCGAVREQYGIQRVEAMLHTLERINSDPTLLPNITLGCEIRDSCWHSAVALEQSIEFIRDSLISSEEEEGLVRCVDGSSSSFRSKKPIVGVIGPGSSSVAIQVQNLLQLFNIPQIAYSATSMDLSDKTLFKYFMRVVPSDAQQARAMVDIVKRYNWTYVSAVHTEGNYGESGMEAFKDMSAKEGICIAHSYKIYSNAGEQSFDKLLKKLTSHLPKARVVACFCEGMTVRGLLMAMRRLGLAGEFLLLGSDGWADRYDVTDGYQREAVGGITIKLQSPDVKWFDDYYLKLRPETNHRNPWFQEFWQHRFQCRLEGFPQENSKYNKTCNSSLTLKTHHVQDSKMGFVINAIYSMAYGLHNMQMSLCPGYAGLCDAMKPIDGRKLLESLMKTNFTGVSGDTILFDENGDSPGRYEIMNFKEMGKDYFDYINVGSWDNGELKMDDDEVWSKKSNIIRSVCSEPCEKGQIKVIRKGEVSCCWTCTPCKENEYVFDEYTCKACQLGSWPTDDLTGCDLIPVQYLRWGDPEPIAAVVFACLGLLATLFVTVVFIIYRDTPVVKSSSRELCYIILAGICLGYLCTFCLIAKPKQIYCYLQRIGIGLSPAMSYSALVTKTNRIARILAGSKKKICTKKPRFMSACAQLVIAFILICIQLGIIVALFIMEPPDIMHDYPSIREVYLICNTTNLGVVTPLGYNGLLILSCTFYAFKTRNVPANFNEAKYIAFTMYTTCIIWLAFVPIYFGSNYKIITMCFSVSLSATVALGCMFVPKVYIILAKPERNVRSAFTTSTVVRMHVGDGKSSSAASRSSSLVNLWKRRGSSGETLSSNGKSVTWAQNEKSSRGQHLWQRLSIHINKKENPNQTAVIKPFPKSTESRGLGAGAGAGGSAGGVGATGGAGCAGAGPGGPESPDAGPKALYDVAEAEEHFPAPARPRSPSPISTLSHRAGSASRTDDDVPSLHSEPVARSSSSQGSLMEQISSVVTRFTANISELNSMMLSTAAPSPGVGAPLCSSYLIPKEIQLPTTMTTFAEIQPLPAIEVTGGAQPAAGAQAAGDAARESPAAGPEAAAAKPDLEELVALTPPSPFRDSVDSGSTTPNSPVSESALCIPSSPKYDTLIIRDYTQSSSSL
T3 sequence (Q14831 35-915): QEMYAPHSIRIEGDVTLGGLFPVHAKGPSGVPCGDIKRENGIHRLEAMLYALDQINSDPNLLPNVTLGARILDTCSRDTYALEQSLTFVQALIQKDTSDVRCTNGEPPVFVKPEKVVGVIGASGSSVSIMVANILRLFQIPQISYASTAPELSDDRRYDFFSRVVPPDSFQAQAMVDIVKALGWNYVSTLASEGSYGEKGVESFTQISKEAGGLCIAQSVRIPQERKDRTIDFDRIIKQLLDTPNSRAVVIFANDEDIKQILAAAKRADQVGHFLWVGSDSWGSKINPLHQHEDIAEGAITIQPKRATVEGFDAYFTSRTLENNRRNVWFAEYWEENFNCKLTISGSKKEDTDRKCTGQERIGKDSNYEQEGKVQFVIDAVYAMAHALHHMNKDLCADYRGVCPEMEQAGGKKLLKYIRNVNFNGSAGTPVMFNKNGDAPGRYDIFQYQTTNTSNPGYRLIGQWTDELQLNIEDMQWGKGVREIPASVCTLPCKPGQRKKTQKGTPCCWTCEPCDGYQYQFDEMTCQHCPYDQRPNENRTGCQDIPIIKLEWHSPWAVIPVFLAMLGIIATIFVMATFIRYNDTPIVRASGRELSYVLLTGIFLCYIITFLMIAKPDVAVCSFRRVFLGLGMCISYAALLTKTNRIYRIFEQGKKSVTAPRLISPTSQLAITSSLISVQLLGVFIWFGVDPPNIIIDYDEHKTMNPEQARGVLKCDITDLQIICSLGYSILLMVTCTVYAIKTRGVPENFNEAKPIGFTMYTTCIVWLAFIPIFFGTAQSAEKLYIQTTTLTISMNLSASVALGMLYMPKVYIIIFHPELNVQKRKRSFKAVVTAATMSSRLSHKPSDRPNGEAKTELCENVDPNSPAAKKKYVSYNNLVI
T7 sequence (Q14832 23-879): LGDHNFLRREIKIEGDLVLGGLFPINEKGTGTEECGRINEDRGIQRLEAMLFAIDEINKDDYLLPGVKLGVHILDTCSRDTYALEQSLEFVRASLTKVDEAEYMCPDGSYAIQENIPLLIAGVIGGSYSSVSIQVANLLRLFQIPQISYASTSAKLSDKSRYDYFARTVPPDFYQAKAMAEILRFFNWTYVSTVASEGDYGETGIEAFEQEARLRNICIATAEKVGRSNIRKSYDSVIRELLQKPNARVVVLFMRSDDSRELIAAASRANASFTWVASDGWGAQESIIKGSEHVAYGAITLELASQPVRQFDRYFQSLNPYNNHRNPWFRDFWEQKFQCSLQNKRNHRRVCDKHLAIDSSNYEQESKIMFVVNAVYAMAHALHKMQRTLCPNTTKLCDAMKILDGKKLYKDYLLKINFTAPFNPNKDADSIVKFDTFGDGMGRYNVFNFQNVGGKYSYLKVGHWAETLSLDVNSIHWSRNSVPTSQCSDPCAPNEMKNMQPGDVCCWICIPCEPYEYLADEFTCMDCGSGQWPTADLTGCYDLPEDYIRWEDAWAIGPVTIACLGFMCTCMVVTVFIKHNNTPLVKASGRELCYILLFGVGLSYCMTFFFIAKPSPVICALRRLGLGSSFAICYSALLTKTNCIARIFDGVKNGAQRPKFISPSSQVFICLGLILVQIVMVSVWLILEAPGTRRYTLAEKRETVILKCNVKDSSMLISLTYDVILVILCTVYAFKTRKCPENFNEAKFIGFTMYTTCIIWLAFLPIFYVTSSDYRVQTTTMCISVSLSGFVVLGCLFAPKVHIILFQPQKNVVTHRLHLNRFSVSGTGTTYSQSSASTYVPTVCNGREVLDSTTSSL

In the case of `NC1(C(=O)O)CCC2C(C(=O)O)C21` (single isomer, unassigned; (+)) [LY354740, (+)-2-aminobicyclo[3.1.0]hexane-2,6-dicarboxylic acid], the EC50 at human mGlu8 is 36000 nM; at human mGlu5 (setting [2]), greater than 100000 nM; at human mGlu7 (setting [2]) it was greater than 100000 nM; at human mGlu4 (setting [2]), greater than 100000 nM; on human mGlu2, 5.1 ± 0.3 nM; at human mGlu1 (setting [2]), greater than 100000 nM. For the same compound, the EC50 at human mGlu3 was 24.3 ± 0.5 nM. Also, the half-inhibitory concentration (IC50) on human mGlu5 (setting [3]), on human mGlu7 (setting [3]), on human mGlu4 (setting [3]) and on human mGlu1 (setting [3]) was greater than 100000 nM each time. Also, the “effect on PCP-induced ambulations” value in experiment [1] (single agent 10 mg/kg) is “statistically insignificant effect”.

As to `N[C@@]1(C(=O)O)CO[C@H]2[C@H](C(=O)O)[C@H]21` [LY379268, 1R,4R,5S,6R-4-amino-(2-oxabicyclo[3.1.0]hexane)-4,6-dicarboxylic acid], the “effect on PCP-induced ambulations” value in experiment [1] (single agent 1 mg/kg) was “smaller and statistically insignificant effect”.

On to `N[C@]1(C(=O)O)C[C@H](F)[C@@H]2[C@@H](C(=O)O)[C@@H]21` [LY459477, (1S,2R,4S,5S,6S)-2-amino-4-fluorobicyclo[3.1.0]hexane-2,6-dicarboxylic acid], for which the “effect on PCP-induced ambulations” value in experiment [1] (single agent 1 mg/kg) is recorded as “relatively small impact; also recorded: statistically insignificant effect”.

As to `Cc1cc2c(s1)Nc1ccccc1N=C2N1CCN(C)CC1` [Olanzapine, 2-methyl-4-(4-methyl-1-piperazinyl)-10H-thieno[2,3-b][1,5]benzodiazepine, reference compound], the “effect on PCP-induced ambulations” value in experiment [1] (single agent 1 mg/kg) is recorded as “significant impact; also recorded: minimal impact”.
